These compounds were tested against Btk enzyme (His-Btk) (Homo sapiens (Human), UniProt Q06187) (assay: Btk enzyme activity, IMAP fluorescence polarization assay (Assay Method A)). Details: not given.
Chain of Btk enzyme (His-Btk) (Q06187 whole entry): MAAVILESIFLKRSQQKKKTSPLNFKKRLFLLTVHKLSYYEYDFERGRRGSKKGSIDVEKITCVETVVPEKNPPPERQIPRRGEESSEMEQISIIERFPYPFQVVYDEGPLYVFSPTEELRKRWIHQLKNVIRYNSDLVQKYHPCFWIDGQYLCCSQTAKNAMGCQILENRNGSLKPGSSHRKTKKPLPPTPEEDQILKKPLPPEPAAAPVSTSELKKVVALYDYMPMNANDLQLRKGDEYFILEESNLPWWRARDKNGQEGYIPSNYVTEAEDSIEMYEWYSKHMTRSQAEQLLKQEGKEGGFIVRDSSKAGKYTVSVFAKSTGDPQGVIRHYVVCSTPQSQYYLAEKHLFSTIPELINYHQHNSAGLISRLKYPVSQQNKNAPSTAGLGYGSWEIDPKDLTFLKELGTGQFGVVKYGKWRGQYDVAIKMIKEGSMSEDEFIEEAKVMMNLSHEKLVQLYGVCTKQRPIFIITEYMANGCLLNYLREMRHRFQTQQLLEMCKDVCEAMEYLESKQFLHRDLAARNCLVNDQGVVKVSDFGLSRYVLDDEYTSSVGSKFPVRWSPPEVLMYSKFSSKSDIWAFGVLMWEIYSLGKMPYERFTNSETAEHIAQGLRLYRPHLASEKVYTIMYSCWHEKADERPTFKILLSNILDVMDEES
COc1cc(-c2nc([C@H]3CC[C@H](O)CC3)n3ccnc(N)c23)ccc1C(=O)Nc1ccccn1 [Example 9, 4-(8-amino-3-((trans)-4-hydroxycyclohexyl)imidazo[1,5-a]pyrazin-1-yl)-2-methoxy-N-(pyridin-2-yl)benzamide] was tested, and the EC50 was 10 to 100 nM.
Nc1nccn2c1c(-c1ccc(C(=O)Nc3ccccn3)c(F)c1)nc2[C@H]1CC[C@H](O)CC1 [Example 12, 4-(8-amino-3-((trans)-4-hydroxycyclohexyl)imidazo[1,5-a]pyrazin-1-yl)-2-fluoro-N-(pyridin-2-yl)benzamide] gave an EC50 of 100 to 1000 nM.
Work on Nc1nccn2c1c(-c1ccc(C(=O)Nc3nc4c(s3)COCC4)cc1)nc2[C@H]1CC[C@H](O)CC1 [Example 15, 4-(8-amino-3-((trans)-4-hydroxycyclohexyl)imidazo[1,5-a]pyrazin-1-yl)-N-(6,7-dihydro-4H-pyrano[4,3-d]thiazol-2-yl)benzamide] yielded an EC50 of 10 to 100 nM.
With Cc1cc(C(=O)Nc2ccccn2)ccc1-c1nc([C@H]2CC[C@H](O)CC2)n2ccnc(N)c12 [Example 16] the EC50 was 100 to 1000 nM.
For CN1CCc2nc(NC(=O)c3ccc(-c4nc([C@H]5CC[C@H](O)CC5)n5ccnc(N)c45)cc3)sc2C1 [Example 18, 4-(8-amino-3-((trans)-4-hydroxycyclohexyl)imidazo[1,5-a]pyrazin-1-yl)-N-(5-methyl-4,5,6,7-tetrahydrothiazolo[5,4-c]pyridin-2-yl)benzamide], the EC50 was 100 to 1000 nM.
In the case of Nc1nccn2c1c(-c1ccc(C(=O)Nc3cc(N4CCCC4)ccn3)cc1)nc2[C@H]1CC[C@H](O)CC1 [Example 21, 4-(8-amino-3-((trans)-4-hydroxycyclohexyl)imidazo[1,5-a]pyrazin-1-yl)-N-(4-(pyrrolidin-1-yl)pyridin-2-yl)benzamide], the EC50 is reported as 10 to 100 nM.
Compound Nc1nccn2c1c(-c1ccc(C(=O)Nc3ccccn3)c3ccccc13)nc2[C@H]1CC[C@H](O)CC1 [Example 22, 4-(8-amino-3-((trans)-4-hydroxycyclohexyl)imidazo[1,5-a]pyrazin-1-yl)-N-(pyridin-2-yl)-1-naphthamide] has an EC50 of 100 to 1000 nM.
In the case of Nc1nccn2c1c(-c1ccc(C(=O)Nc3ccccn3)c(Cl)c1)nc2[C@H]1CC[C@H](O)CC1 [Example 23, 4-(8-amino-3-((trans)-4-hydroxycyclohexyl)imidazo[1,5-a]pyrazin-1-yl)-2-chloro-N-(pyridin-2-yl)benzamide], the EC50 is reported as 10 to 100 nM.
In the case of CCCc1ccnc(NC(=O)c2ccc(-c3nc(C4CCOCC4)n4ccnc(N)c34)cc2)c1 [Example 24, 4-(8-amino-3-(tetrahydro-2H-pyran-4-yl)imidazo [1,5-a]pyrazin-1-yl)-N-(4-propylpyridin-2-yl)benzamide], the EC50 is reported as < 10 nM.
In the case of N#Cc1ccnc(NC(=O)c2ccc(-c3nc(C4CCOCC4)n4ccnc(N)c34)cc2)c1 [Example 26, 4-(8-amino-3-(tetrahydro-2H-pyran-4-yl)imidazo [1,5-a]pyrazin-1-yl)-N-(4-cyanopyridin-2-yl)benzamide], the EC50 is reported as 10 to 100 nM.
Work on Nc1nccn2c(C3CCOCC3)nc(-c3ccc(C(=O)Nc4ccccn4)cc3)c12 [Example 27, 4-(8-amino-3-(tetrahydro-2H-pyran-4-yl)imidazo[1,5-a]pyrazin-1-yl)-N-(pyridin-2-yl)benzamide] yielded an EC50 of 10 to 100 nM.
For CCc1cnc(NC(=O)c2ccc(-c3nc(C4CCOCC4)n4ccnc(N)c34)cc2)s1 [Example 28, 4-(8-amino-3-(tetrahydro-2H-pyran-4-yl)imidazo[1,5-a]pyrazin-1-yl)-N-(5-ethylthiazol-2-yl)benzamide], the EC50 was 10 to 100 nM.
Compound Nc1nccn2c(C3CCOCC3)nc(-c3ccc(C(=O)Nc4nccs4)cc3)c12 [Example 29, 4-(8-amino-3-(tetrahydro-2H-pyran-4-yl)imidazo[1,5-a]pyrazin-1-yl)-N-(thiazol-2-yl)benzamide] has an EC50 of 100 to 1000 nM.

Same assay, conditions: read-out: EC50 Btk activity values - Assay Method A; IMAP-FP, 60 min pre-incubation, 5 μM ATP
For Nc1nccn2c1c(-c1ccc(C(=O)Nc3nc4c(s3)CNCC4)cc1)nc2[C@H]1CC[C@H](O)CC1 [Example 17, 4-(8-amino-3-((trans)-4-hydroxycyclohexyl)imidazo[1,5-a]pyrazin-1-yl)-N-(4,5,6,7-tetrahydrothiazolo[5,4-c]pyridin-2-yl)benzamide], the EC50 was ≥ 1000 nM.

Same assay, conditions: read-out: EC50 Btk activity values - Assay Method A; IMAP-FP, 60 min pre-incubation, 5 μM ATP; class 100-1000 is given as ≧100 nM-<1 μM
With CC(C)c1ccnc(NC(=O)c2ccc(-c3nc([C@H]4CC[C@H](O)CC4)n4ccnc(N)c34)cc2)c1 [Example 6, 4-(8-amino-3-((trans)-4-hydroxycyclohexyl)imidazo[1,5-a]pyrazin-1-yl)-N-(4-isopropylpyridin-2-yl)benzamide] the EC50 was < 10 nM.
Nc1nccn2c1c(-c1ccc(C(=O)Nc3cc(C4CC4)ccn3)cc1)nc2[C@H]1CC[C@H](O)CC1 [Example 7, 4-(8-amino-3-((trans)-4-hydroxycyclohexyl)imidazo[1,5-a]pyrazin-1-yl)-N-(4-cyclopropylpyridin-2-yl)benzamide] was tested, and the EC50 was < 10 nM.
In the case of Nc1nccn2c1c(-c1ccc(C(=O)Nc3nc4c(s3)CCCC4)cc1)nc2[C@H]1CC[C@H](O)CC1 [Example 8, 4-(8-amino-3-((trans)-4-hydroxycyclohexyl)imidazo[1,5-a]pyrazin-1-yl)-N-(4,5,6,7-tetrahydrobenzo[d]thiazol-2-yl)benzamide], the EC50 is reported as < 10 nM.
For CCCc1ccnc(NC(=O)c2ccc(-c3nc([C@H]4CC[C@H](O)CC4)n4ccnc(N)c34)c(C)c2)c1 [Example 10, 4-(8-amino-3-((trans)-4-hydroxycyclohexyl)imidazo[1,5-a]pyrazin)-3-methyl-N-(4-propylpyridin-2-yl)benzamide], the EC50 was < 10 nM.
CCCc1ccnc(NC(=O)c2ccc(-c3nc([C@H]4CC[C@H](O)CC4)n4ccnc(N)c34)cc2OC)c1 [Example 11, 4-(8-amino-3-((trans)-4-hydroxycyclohexyl)imidazo[1,5-a]pyrazin-1-yl)-2-methoxy-N-(4-propylpyridin-2-yl)benzamide] was tested, and the EC50 was < 10 nM.
CCCc1ccnc(NC(=O)c2ccc(-c3nc([C@H]4CC[C@H](O)CC4)n4ccnc(N)c34)cc2F)c1 [Example 13, 4-(8-amino-3-((trans)-4-hydroxycyclohexyl)imidazo[1,5-a]pyrazin-1-yl)-2-fluoro-N-(4-propylpyridin-2-yl)benzamide] was tested, and the EC50 was < 10 nM.
For CC1CCc2nc(NC(=O)c3ccc(-c4nc([C@H]5CC[C@H](O)CC5)n5ccnc(N)c45)cc3)sc2C1 (stereo partly drawn) [Example 14, 4-(8-amino-3-((trans)-4-hydroxycyclohexyl)imidazo[1,5-a]pyrazin-1-yl)-N-(6-methyl-4,5,6,7-tetrahydrobenzo[d]thiazol-2-yl)benzamide], the EC50 was < 10 nM.
In the case of CCc1ccnc(NC(=O)c2ccc(-c3nc([C@H]4CC[C@H](O)CC4)n4ccnc(N)c34)cc2)c1 [Example 19, 4-(8-amino-3-((trans)-4-hydroxycyclohexyl)imidazo[1,5-a]pyrazin-1-yl)-N-(4-ethylpyridin-2-yl)benzamide], the EC50 is reported as < 10 nM.
In the case of Nc1nccn2c1c(-c1ccc(C(=O)Nc3cc(-c4ccccc4)ccn3)cc1)nc2[C@H]1CC[C@H](O)CC1 [Example 20, 4-(8-amino-3-((trans)-4-hydroxycyclohexyl)imidazo[1,5-a]pyrazin-1-yl)-N-(4-phenylpyridin-2-yl)benzamide], the EC50 is reported as < 10 nM.
Nc1nccn2c(C3CCOCC3)nc(-c3ccc(C(=O)Nc4cc(C(F)(F)F)ccn4)cc3)c12 [Example 25, 4-(8-amino-3-(tetrahydro-2H-pyran-4-yl)imidazo[1,5-a]pyrazin-1-yl)-N-(4-(trifluoromethyl)pyridin-2-yl)benzamide] was tested, and the EC50 was < 10 nM.
